This test has as its target T1, human M1 receptor (Homo sapiens, UniProt P11229).
T1 sequence (P11229 1-460): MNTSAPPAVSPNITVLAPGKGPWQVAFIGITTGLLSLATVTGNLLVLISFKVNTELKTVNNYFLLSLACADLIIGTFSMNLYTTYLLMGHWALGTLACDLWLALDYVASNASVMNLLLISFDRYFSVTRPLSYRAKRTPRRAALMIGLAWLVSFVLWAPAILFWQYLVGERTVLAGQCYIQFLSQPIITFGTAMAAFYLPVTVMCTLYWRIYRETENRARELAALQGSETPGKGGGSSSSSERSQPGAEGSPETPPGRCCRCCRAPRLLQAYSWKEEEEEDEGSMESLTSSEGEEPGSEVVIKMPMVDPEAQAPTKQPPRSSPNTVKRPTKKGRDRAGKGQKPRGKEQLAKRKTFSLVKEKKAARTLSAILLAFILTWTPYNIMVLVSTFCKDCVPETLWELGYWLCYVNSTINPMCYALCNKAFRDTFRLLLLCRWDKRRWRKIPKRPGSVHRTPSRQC
Description: In vitro functional assay of muscarinic acetylcholine receptor activity (aequorin calcium flux, reversal of EC80 acetylcholine response). Particulars: CHO-K1 cells stably expressing human M1 receptor with aequorin; acetylcholine at EC80; calcium flux (luminescence); read-out: M1 IC50. It is filed as cell-based. Put shortly: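 CHO-K1 cells expressing human M1 and aequorin, loaded with 5 μM coelenterazine for 4 h, preincubated with compound 30 min at room temperature, then challenged with EC80 acetylcholine.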

As a reminder, the IC50 is the concentration that gives 50% inhibition.

Molecules are shown by their SMILES.

As for `N#Cc1ccc(N2C3CCC2CN(C(=O)CNC2(c4cccc(OC(F)(F)F)c4)CCC2)C3)nc1` [Example 119, 6-(3-((1-(3-(trifluoromethoxy)phenyl)cyclobutyl)glycyl)-3,8-diazabicyclo[3.2.1]octan-8-yl)nicotinonitrile], the IC50 is 100 to 1000 nM.
With `N#Cc1ccc(N2C3CCC2CN(C(=O)CCC(F)(F)c2cccc4ncccc24)C3)nc1` [Example 122, 6-(3-(4,4-difluoro-4-(quinolin-5-yl)butanoyl)-3,8-diazabicyclo[3.2.1]octan-8-yl)nicotinonitrile] the figure was less than 10 nM; with `N#Cc1ccc(N2C3CCC2CN(C(=O)/C=C/C(F)(F)c2ccc(F)cc2)C3)nc1` [Example 123, 6-(3-((E)-4,4-difluoro-4-(4-fluorophenyl)but-2-enoyl)-3,8-diazabicyclo[3.2.1]octan-8-yl)nicotinonitrile], 10 to 100 nM.
Consider `N#Cc1ccc(N2C3CCC2CN(C(=O)CCC(F)(F)c2ccc(F)cc2)C3)nc1` [Example 124, 6-(3-(4,4-difluoro-4-(4-fluorophenyl)butanoyl)-3,8-diazabicyclo[3.2.1]octan-8-yl)nicotinonitrile], for which the half-inhibitory concentration (IC50) was in the range of 10 to 100 nM.
For `N#Cc1ccc(N2[C@@H]3CC[C@H]2CN(C(=O)/C=C/C(F)(F)c2cccc4nccnc24)C3)nc1` [Example 125, 6-(3-((E)-4,4-difluoro-4-(quinoxalin-5-yl)but-2-enoyl)-3,8-diazabicyclo[3.2.1]octan-8-yl)nicotinonitrile], the IC50 was less than 10 nM.
With `Cc1noc(C)c1C(F)(F)CCC(=O)N1CC2CCC(C1)N2c1ccc(C#N)cn1` [Example 126, 6-(3-(4-(3,5-dimethylisoxazol-4-yl)-4,4-difluorobutanoyl)-3,8-diazabicyclo[3.2.1]octan-8-yl)nicotinonitrile] the figure was less than 10 nM.
On to `N#Cc1ccc(N2C3CCC2CN(C(=O)CCNC(CO)c2ccc(F)cc2)C3)nc1` [Example 130, 6-((3-(3-(((R)-1-(4-fluorophenyl)-2-hydroxyethyl)amino)propanoyl)-3,8-diazabicyclo[3.2.1]octan-8-yl)nicotinonitrile], for which the IC50 is more than 1000 nM.
With `N#Cc1ccc(N2C3CCC2CN(C(=O)CCNC(CO)c2ccc(F)cc2)C3)nc1` [Example 131, 6-((3-(3-(((S)1-(4-fluorophenyl)-2-hydroxyethyl)amino)propanoyl)-3,8-diazabicyclo[3.2.1]octan-8-yl)nicotinonitrile] the figure was 1000 to 10000 nM.
Take `COc1cc(C(F)(F)/C=C/C(=O)N2CC3CCC(C2)N3c2ccc(C#N)cn2)ccn1` [Example 139, 6-(3-((E)-4,4-difluoro-4-(2-methoxypyridin-4-yl)but-2-enoyl)-3,8-diazabicyclo[3.2.1]octan-8-yl)nicotinonitrile]: the IC50 is less than 10 nM.
In the case of `COc1cnccc1C(F)(F)CCC(=O)N1CC2CCC(C1)N2c1ccc(C#N)cn1` [Example 140, 6-(3-(4,4-difluoro-4-(3-methoxypyridin-4-yl)butanoyl)-3,8-diazabicyclo[3.2.1]octan-8-yl)nicotinonitrile], the 50% inhibitory concentration (IC50) was less than 10 nM.
Next, `COc1ncccc1C(F)(F)/C=C/C(=O)N1C[C@H]2CC[C@@H](C1)N2c1ccc(C#N)cn1` [Example 141, 6-(3-((E)-4,4-difluoro-4-(2-methoxypyridin-3-yl)but-2-enoyl)-3,8-diazabicyclo[3.2.1]octan-8-yl)nicotinonitrile]: less than 10 nM.
Turning to `COc1cncc(C(F)(F)/C=C/C(=O)N2CC3CCC(C2)N3c2ccc(C#N)cn2)c1` [Example 142, 6-(3-((E)-4,4-difluoro-4-(5-methoxypyridin-3-yl)but-2-enoyl)-3,8-diazabicyclo[3.2.1]octan-8-yl)nicotinonitrile], the IC50 is less than 10 nM.
Next, `COc1ccncc1C(F)(F)/C=C/C(=O)N1C[C@H]2CC[C@@H](C1)N2c1ccc(C#N)cn1` [Example 143, 6-(3-((E)-4,4-difluoro-4-(4-methoxypyridin-3-yl)but-2-enoyl)-3,8-diazabicyclo[3.2.1]octan-8-yl)nicotinonitrile]: less than 10 nM; `COc1cccnc1C(F)(F)/C=C/C(=O)N1C[C@H]2CC[C@@H](C1)N2c1ccc(C#N)cn1` [Example 144, 6-(3-((E)-4,4-difluoro-4-(3-methoxypyridin-2-yl)but-2-enoyl)-3,8-diazabicyclo[3.2.1]octan-8-yl)nicotinonitrile]: less than 10 nM; `COc1cccc(C(F)(F)CCC(=O)N2CC3CCC(C2)N3c2ccc(C#N)cn2)n1` [Example 145, 6-(3-(4,4-difluoro-4-(6-methoxypyridin-2-yl)butanoyl)-3,8-diazabicyclo[3.2.1]octan-8-yl)nicotinonitrile]: less than 10 nM.
Take `N#Cc1ccc(N2[C@@H]3CC[C@H]2CN(C(=O)/C=C/C(F)(F)c2cccn4ncnc24)C3)nc1` [Example 146, 6-(3-((E)-4-([1,2,4]triazolo[1,5-a]pyridin-8-yl)-4,4-difluorobut-2-enoyl)-3,8-diazabicyclo[3.2.1]octan-8-yl)nicotinonitrile]: the IC50 was less than 10 nM.
With `N#Cc1ccc(N2C3CCC2CN(C(=O)/C=C/C(F)(F)c2cccc4ncnn24)C3)nc1` [Example 148, 6-(-3-((E)-4-([1,2,4]triazolo[1,5-a]pyridin-5-yl)-4,4-difluorobut-2-enoyl)-3,8-diazabicyclo[3.2.1]octan-8-yl)nicotinonitrile] the figure was less than 10 nM.
Consider `[2H]C([2H])([2H])Oc1cc(C(F)(F)/C=C/C(=O)N2CC3CCC(C2)N3c2ccc(C#N)cn2)ccn1` [Example 149, 6-(3-((E)-4,4-difluoro-4-(2-(methoxy-d3)pyridin-4-yl)but-2-enoyl)-3,8-diazabicyclo[3.2.1]octan-8-yl)nicotinonitrile], for which the concentration for half-maximal inhibition (IC50) is less than 10 nM.
As for `COc1cc(C(F)(F)CCCC(=O)N2CC3CCC(C2)N3c2ccc(C#N)cn2)ccn1` [Example 150, 6-(3-(5,5-difluoro-5-(2-methoxypyridin-4-yl)pentanoyl)-3,8-diazabicyclo[3.2.1]octan-8-yl)nicotinonitrile], the IC50 is 100 to 1000 nM.
For the compound `COc1cc(C2(/C=C/C(=O)N3CC4CCC(C3)N4c3ccc(C#N)cn3)CCC2)ccn1` [Example 151, 6-(3-((E)-3-(1-(2-methoxypyridin-4-yl)cyclobutyl)acryloyl)-3,8-diazabicyclo[3.2.1]octan-8-yl)nicotinonitrile], the IC50 was less than 10 nM.
For `N#Cc1ccc(N2C3CCC2CN(C(=O)C2CC(O)(c4cccc5ncccc45)C2)C3)nc1` (centres unmarked) [Example 152, 6-(3-(3-hydroxy-3-(quinolin-5-yl)cyclobutane-1-carbonyl)-3,8-diazabicyclo[3.2.1]octan-8-yl)nicotinonitrile], the IC50 fell in the range of 1000 to 10000 nM.
`COc1cc(C(F)(F)CCC(=O)N2C[C@@H]3C[C@H]2CN3c2ccc(C#N)cn2)ccn1` [Example 154, 6-((1S,4S)-5-(4,4-difluoro-4-(2-methoxypyridin-4-yl)butanoyl)-2,5-diazabicyclo[2.2.1]heptan-2-yl)nicotinonitrile]: the IC50 lay in the range of 1000 to 10000 nM.
Regarding `COc1cc(C(F)(F)CCC(=O)N2C[C@@H]3CC[C@H]2CN3c2ccc(C#N)cn2)ccn1` [Example 155, 6-((1S,4S)-5-(4,4-difluoro-4-(2-methoxypyridin-4-yl)butanoyl)-2,5-diazabicyclo[2.2.2]octan-2-yl)nicotinonitrile], the IC50 was 10 to 100 nM.

Values taken from patent US12565501B2, “Muscarinic acetylcholine M1 receptor antagonists” (Contineum Therapeutics, Inc., priority 2019, dated 2026).
